# Strand notation (5' to 3'): a small letter for the sugar, then the base; units joined by * are phosphorothioate-linked, units joined directly phosphodiester-linked; [ ] holds rarer units or linkages, { } end groups; capitals alone tell only the bases. e = 2'-O-(2-methoxyethyl) (MOE); [5mC] = 5-methylcytosine; d = 2'-deoxy (DNA)
# Tested on: human Factor 7 mRNA
# Assay: Antisense inhibition of human Factor 7 mRNA in HepB3 cells, 50 nM antisense oligonucleotide, lipofectin
# Format: cell-based
# Settings: for % Inhibition: lipofectin, approximately 24 hours
# Procedure, shortened: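 HepB3 cells were transfected by lipofectin with 50 nM antisense oligonucleotide and harvested after about 24 h. Factor 7 mRNA was measured by real-time RT-PCR (primer probe set RTS 2927 in some runs), normalized to RIBOGREEN total RNA, and reported as percent inhibition versus untreated control.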
# [1] = Table 1, 50 nM, relative to untreated control cells
# [2] = 50 nM antisense oligonucleotide, Factor 7 mRNA by real-time RT-PCR (RTS 2927), relative to untreated control
# [3] = oligonucleotides targeted to nucleobases 11830 to 11869 of SEQ ID NO: 1 (Table 9)
# [4] = oligonucleotides targeted to nucleobases 13760 to 13789 of SEQ ID NO: 1 (Table 10)
# [5] = oligonucleotides targeted to nucleobases 14707 to 14732 of SEQ ID NO: 1 (Table 11)
substance,measurement,setting,value
422127 (antisense eT*eA*e[5mC]*eT*eG*dA*dG*d[5mC]*dG*d[5mC]*dG*dG*dA*dA*dG*eA*eA*eG*eG*eG) [compound 422127],% Inhibition,"Table 6, 50 nM",17%
407656 (antisense e[5mC]*eA*eG*e[5mC]*eA*dA*dG*dA*dG*dT*dG*d[5mC]*dA*dG*d[5mC]*eT*eT*eG*e[5mC]*e[5mC]) [compound 407656],% Inhibition,[1],43%
416517 (antisense eG*eG*eG*eT*eG*d[5mC]*dA*dG*dT*dA*dG*d[5mC]*dA*dG*dA*eT*eG*e[5mC]*eA*eA) [compound 416517],% Inhibition,[2],23%
422245 (antisense eT*eG*dA*dG*dG*dA*dG*dA*d[5mC]*dA*dA*dT*dG*dG*dT*e[5mC]*eA*eG*eG*eG) [compound 422245],% Inhibition (human Factor 7 mRNA levels),[3],24%
422128 (antisense eT*eT*eA*e[5mC]*eT*dG*dA*dG*d[5mC]*dG*d[5mC]*dG*dG*dA*dA*eG*eA*eA*eG*eG) [compound 422128],% Inhibition,"Table 6, 50 nM",27%
407934 (antisense e[5mC]*eT*eG*eA*eA*dG*dT*dG*dA*dA*dG*dA*dT*dG*dA*eT*eA*eA*eT*eG) [compound 407934],% Inhibition,[1],45%
416515 (antisense eT*eA*eG*eG*e[5mC]*dA*dT*dG*dA*d[5mC]*d[5mC]*dA*dT*d[5mC]*d[5mC]*eT*e[5mC]*eA*eA*eT) [compound 416515],% Inhibition,[2],39%
422186 (antisense eG*eG*eA*dA*dG*dA*dA*dG*dG*dG*dA*d[5mC]*dG*dG*dA*dA*dG*eG*eT*eG) [compound 422186],% Inhibition,"Table 6, 50 nM",14%
407960 (antisense eG*eT*eG*e[5mC]*e[5mC]*d[5mC]*dA*dG*dG*dA*d[5mC]*dG*dG*d[5mC]*d[5mC]*e[5mC]*eT*eG*e[5mC]*eA) [compound 407960],% Inhibition,[1],53%
407598 (antisense e[5mC]*e[5mC]*eA*eT*eG*dA*dT*dG*dA*dA*dA*dT*d[5mC]*dT*d[5mC]*eT*eG*e[5mC]*eA*eG) [compound 407598],% Inhibition,[1],72%
407940 (antisense eT*eG*eT*eG*eA*dA*dG*d[5mC]*dT*dG*dG*dG*dA*dA*dG*e[5mC]*eA*eG*eG*eT) [compound 407940],% Inhibition,[1],62%
422226 (antisense e[5mC]*eA*dT*dG*dG*dT*dG*dA*dT*dG*d[5mC]*dT*dT*d[5mC]*dT*eG*eA*eA*eT*eT) [compound 422226],% Inhibition,"Table 13 (microwalk), 50 nM",41%
416437 (antisense eA*eG*eG*e[5mC]*eA*d[5mC]*dA*d[5mC]*dT*dG*dG*dT*d[5mC]*d[5mC]*d[5mC]*e[5mC]*eA*eT*e[5mC]*eA) [compound 416437],% Inhibition,[2],52%
407626 (antisense eT*e[5mC]*eT*eT*eG*dA*dT*dT*dT*dT*dG*dT*d[5mC]*dG*dA*eA*eA*e[5mC]*eA*eG) [compound 407626],% Inhibition,[1],82%
422175 (antisense e[5mC]*eG*e[5mC]*d[5mC]*dG*dG*d[5mC]*dT*d[5mC]*dT*dG*d[5mC]*dT*d[5mC]*dA*dT*d[5mC]*e[5mC]*e[5mC]*e[5mC]) [compound 422175],% Inhibition (human Factor 7 mRNA levels),[4],69%
422180 (antisense e[5mC]*e[5mC]*eA*d[5mC]*d[5mC]*d[5mC]*dG*d[5mC]*d[5mC]*dG*dG*d[5mC]*dT*d[5mC]*dT*dG*d[5mC]*eT*e[5mC]*eA) [compound 422180],% Inhibition (human Factor 7 mRNA levels),[4],54%
407930 (antisense e[5mC]*eA*eA*eT*eG*dA*dA*dG*dG*d[5mC]*dA*dG*dA*dG*d[5mC]*eA*eG*e[5mC]*eA*eG) [compound 407930],% Inhibition,[1],70%
422277 (antisense e[5mC]*e[5mC]*dT*dG*dA*dG*dG*d[5mC]*d[5mC]*dA*dG*d[5mC]*dA*dG*dA*eT*e[5mC]*eA*e[5mC]*eG) [compound 422277],% Inhibition (human Factor 7 mRNA levels),[5],56%
416536 (antisense e[5mC]*eG*eG*eG*eA*dA*dG*dG*d[5mC]*d[5mC]*dT*dG*d[5mC]*d[5mC]*d[5mC]*eT*eG*e[5mC]*eA*eG) [compound 416536],% Inhibition,[2],23%
422293 (antisense eA*eG*dT*dT*d[5mC]*dT*dG*d[5mC]*dA*dG*dG*dA*dG*d[5mC]*dG*eG*e[5mC]*e[5mC]*eT*eA) [compound 422293],% Inhibition of human Factor 7 mRNA levels,"gapmers targeted to nucleobases 4868 to 4899 of SEQ ID NO: 1, Table 8",69%
422117 (antisense eG*eG*eA*eA*eG*dA*dA*dG*dG*dG*dA*d[5mC]*dG*dG*dA*eA*eG*eG*eT*eG) [compound 422117],% Inhibition,"Table 6, 50 nM",1%
422255 (antisense eA*e[5mC]*d[5mC]*d[5mC]*dG*d[5mC]*d[5mC]*dG*dG*d[5mC]*dT*d[5mC]*dT*dG*d[5mC]*eT*e[5mC]*eA*eT*e[5mC]) [compound 422255],% Inhibition (human Factor 7 mRNA levels),[4],30%
407620 (antisense eA*eG*eG*eA*e[5mC]*d[5mC]*dT*dG*d[5mC]*d[5mC]*dA*dT*dG*dG*dA*e[5mC]*eA*e[5mC]*eT*e[5mC]) [compound 407620],% Inhibition,[1],79%
422155 (antisense eG*eT*e[5mC]*dA*dG*dG*dG*d[5mC]*dT*dG*dG*dT*dT*dT*dT*dG*dG*eA*eG*eG) [compound 422155],% Inhibition (human Factor 7 mRNA levels),[3],34%
407658 (antisense eG*e[5mC]*eT*eT*eG*d[5mC]*d[5mC]*dG*dG*dA*dG*dT*d[5mC]*dT*dG*eA*eG*eT*eG*eG) [compound 407658],% Inhibition,[1],16%
407915 (antisense eG*eT*eT*eG*e[5mC]*dG*d[5mC]*dA*dG*d[5mC]*d[5mC]*d[5mC]*dT*dG*dG*e[5mC]*e[5mC]*e[5mC]*e[5mC]*eA) [compound 407915],% Inhibition,[1],83%
416501 (antisense e[5mC]*eT*eG*e[5mC]*e[5mC]*d[5mC]*dT*dT*d[5mC]*d[5mC]*dA*d[5mC]*d[5mC]*dA*dA*eG*eT*eT*eT*eA) [compound 416501],% Inhibition,[2],18%
422131 (antisense eA*eG*e[5mC]*e[5mC]*eT*dG*dA*dG*dG*d[5mC]*d[5mC]*dA*dG*d[5mC]*dA*eG*eA*eT*e[5mC]*eA) [compound 422131],% Inhibition (human Factor 7 mRNA levels),[5],68%
422164 (antisense eG*eA*eG*dA*d[5mC]*dA*dA*dT*dG*dG*dT*d[5mC]*dA*dG*dG*dG*d[5mC]*eT*eG*eG) [compound 422164],% Inhibition (human Factor 7 mRNA levels),[3],64%
407887 (antisense e[5mC]*e[5mC]*eA*eG*eG*d[5mC]*dA*dG*d[5mC]*d[5mC]*d[5mC]*dT*dG*dA*dA*eG*e[5mC]*e[5mC]*e[5mC]*eA) [compound 407887],% Inhibition,[1],78%
416462 (antisense eG*eG*e[5mC]*eA*eG*dT*d[5mC]*d[5mC]*dT*dG*dG*dG*dT*d[5mC]*dA*eT*e[5mC]*eA*eG*e[5mC]) [compound 416462],% Inhibition,[2],60%
407918 (antisense e[5mC]*e[5mC]*eT*eG*eG*dT*dG*dT*dA*d[5mC]*dA*d[5mC]*d[5mC]*d[5mC]*d[5mC]*eA*eA*eA*eG*eT) [compound 407918],% Inhibition,[1],72%
422273 (antisense eT*eA*d[5mC]*dT*dG*dA*dG*d[5mC]*dG*d[5mC]*dG*dG*dA*dA*dG*eA*eA*eG*eG*eG) [compound 422273],% Inhibition,"Table 6, 50 nM",0%
422188 (antisense eG*e[5mC]*eG*dG*dA*dA*dG*dA*dA*dG*dG*dG*dA*d[5mC]*dG*dG*dA*eA*eG*eG) [compound 422188],% Inhibition,"Table 6, 50 nM",37%
407629 (antisense eT*e[5mC]*eA*eG*eT*dG*dA*dG*dG*dA*d[5mC]*d[5mC]*dA*d[5mC]*dG*eG*eG*e[5mC]*eT*eG) [compound 407629],% Inhibition,[1],34%
416499 (antisense eG*eA*eG*eA*eG*d[5mC]*dT*dG*d[5mC]*dA*d[5mC]*d[5mC]*dT*dG*dG*e[5mC]*e[5mC]*eG*eG*e[5mC]) [compound 416499],% Inhibition,[2],7%
422182 (antisense e[5mC]*eG*e[5mC]*d[5mC]*dA*d[5mC]*d[5mC]*d[5mC]*dG*d[5mC]*d[5mC]*dG*dG*d[5mC]*dT*d[5mC]*dT*eG*e[5mC]*eT) [compound 422182],% Inhibition (human Factor 7 mRNA levels),[4],11%
416516 (antisense eG*eT*eG*eA*eG*dA*dA*dT*dA*d[5mC]*dA*dA*d[5mC]*dA*dG*eA*eT*eG*eA*eG) [compound 416516],% Inhibition,[2],24%
416479 (antisense eG*eA*e[5mC]*eA*eG*d[5mC]*dA*d[5mC]*dA*d[5mC]*dA*dT*dG*dG*dA*eG*eT*e[5mC]*eA*eG) [compound 416479],% Inhibition,[2],56%
same,% Inhibition (human Factor 7 mRNA levels),oligonucleotides targeted to nucleobases 15098 to 15122 of SEQ ID NO: 1 (Table 12),47%
422154 (antisense eT*e[5mC]*eA*dG*dG*dG*d[5mC]*dT*dG*dG*dT*dT*dT*dT*dG*dG*dA*eG*eG*eA) [compound 422154],% Inhibition (human Factor 7 mRNA levels),[3],31%
416524 (antisense eT*eA*eA*eT*eT*dT*dA*dA*dT*dA*dT*dT*d[5mC]*dA*dG*eA*eT*eG*eG*eT) [compound 416524],% Inhibition,[2],0%
416554 (antisense eA*eA*eA*eG*eA*dT*d[5mC]*d[5mC]*d[5mC]*dA*d[5mC]*d[5mC]*dT*d[5mC]*dA*eA*eA*eG*eA*eG) [compound 416554],% Inhibition,[2],7%
407652 (antisense eT*eG*eG*eG*eA*dG*d[5mC]*dT*dA*d[5mC]*dA*dG*d[5mC]*d[5mC]*dT*e[5mC]*eA*eA*eA*e[5mC]) [compound 407652],% Inhibition,[1],30%
422202 (antisense eA*eG*e[5mC]*d[5mC]*dT*dG*dA*dG*dG*d[5mC]*d[5mC]*dA*dG*d[5mC]*dA*dG*dA*eT*e[5mC]*eA) [compound 422202],% Inhibition (human Factor 7 mRNA levels),[5],49%
416463 (antisense eT*eG*e[5mC]*eT*eG*d[5mC]*dA*dG*dG*d[5mC]*dA*dG*dT*d[5mC]*d[5mC]*eT*eG*eG*eG*eT) [compound 416463],% Inhibition,[2],39%
